# Measured values published in ChEMBL document CHEMBL1156029, “The discovery of thienopyridine analogues as potent IkappaB kinase beta inhibitors. Part II” (Bioorg Med Chem Lett, 2009).
# Target: T1, Inhibitor of nuclear factor kappa-B kinase subunit beta (Homo sapiens, UniProt O14920)
# T1 sequence (O14920 whole entry): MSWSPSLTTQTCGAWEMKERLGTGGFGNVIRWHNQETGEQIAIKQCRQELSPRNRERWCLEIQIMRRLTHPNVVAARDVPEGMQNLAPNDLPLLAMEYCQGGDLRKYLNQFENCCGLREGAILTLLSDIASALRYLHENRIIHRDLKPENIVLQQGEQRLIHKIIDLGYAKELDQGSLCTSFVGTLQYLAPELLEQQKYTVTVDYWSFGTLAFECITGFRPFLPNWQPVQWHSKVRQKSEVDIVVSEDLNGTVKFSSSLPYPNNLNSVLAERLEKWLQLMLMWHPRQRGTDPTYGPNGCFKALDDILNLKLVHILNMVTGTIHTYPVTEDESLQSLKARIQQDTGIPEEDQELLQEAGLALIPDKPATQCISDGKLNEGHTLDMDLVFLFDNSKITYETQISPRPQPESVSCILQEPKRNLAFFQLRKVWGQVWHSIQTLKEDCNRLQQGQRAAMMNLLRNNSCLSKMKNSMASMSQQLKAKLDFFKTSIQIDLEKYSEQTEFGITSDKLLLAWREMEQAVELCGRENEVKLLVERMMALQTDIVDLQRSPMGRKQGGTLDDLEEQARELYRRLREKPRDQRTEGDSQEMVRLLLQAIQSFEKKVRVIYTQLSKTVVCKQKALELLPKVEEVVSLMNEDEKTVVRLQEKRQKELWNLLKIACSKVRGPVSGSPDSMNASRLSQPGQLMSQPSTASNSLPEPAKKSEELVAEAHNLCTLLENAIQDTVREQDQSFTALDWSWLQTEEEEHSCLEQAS
# Experiment: Inhibition of Flag epitope-tagged IKK-beta preincubated for 5 mins by scintillation proximity assay
row,Compound,IC50
1,CCCc1cc(N2CCC(NS(C)(=O)=O)CC2)nc2sc(C(N)=O)c(N)c12,98 nM
2,Cc1cc(-c2ccccn2)c2c(N)c(C(N)=O)sc2n1,6000 nM
3,Cc1cc(N2CCC(O)CC2)nc2sc(C(N)=O)c(N)c12,750 nM
4,Cc1cc(OCCCO)nc2sc(C(N)=O)c(N)c12,5100 nM
5,Cc1cc(OCCN)nc2sc(C(N)=O)c(N)c12,2900 nM
6,CCCc1cc(N2CCNC(=O)C2)nc2sc(C(N)=O)c(N)c12,2000 nM
7,Cc1cc(CC(C)C)c2c(N)c(C(N)=O)sc2n1,2500 nM
8,Cc1cc(N2CCOCC2)nc2sc(C(N)=O)c(N)c12,2500 nM
9,CCCc1cc(N2CCCNCC2)nc2sc(C(N)=O)c(N)c12,72 nM
10,Cc1cc(C)c2c(N)c(C(N)=O)sc2n1,2700 nM
11,Cc1cc(N2CCNCC2)nc2sc(C(N)=O)c(N)c12,680 nM
12,Cc1cc(-c2ccc(Cl)cc2)c2c(N)c(C(N)=O)sc2n1,14000 nM
13,Cc1cc(NCCO)nc2sc(C(N)=O)c(N)c12,5800 nM
14,CCCc1cc(N2CCCNC(=O)C2)nc2sc(C(N)=O)c(N)c12,140 nM
15,Cc1cc(OCCCN)nc2sc(C(N)=O)c(N)c12,> 50000 nM
16,Cc1cc(-c2cccs2)c2c(N)c(C(N)=O)sc2n1,2000 nM

row,Compound,IC50
1,Cc1cc(CO)c2c(N)c(C(N)=O)sc2n1,13500 nM
2,Cc1cc(N2CCCCC2)nc2sc(C(N)=O)c(N)c12,2400 nM
3,Cc1cc(OCCO)nc2sc(C(N)=O)c(N)c12,6600 nM
4,CCOc1ccnc2sc(C(N)=O)c(N)c12,2000 nM
5,Cc1cc(-c2cc3ccccc3o2)c2c(N)c(C(N)=O)sc2n1,16900 nM
6,CCCc1cc(N2CCN(C(N)=O)CC2)nc2sc(C(N)=O)c(N)c12,150 nM
7,Cc1cc(-c2ccc(S(C)(=O)=O)cc2)c2c(N)c(C(N)=O)sc2n1,1300 nM
8,Cc1cc(-c2ccco2)c2c(N)c(C(N)=O)sc2n1,1100 nM
9,Cc1cc(-c2ccc(O)cc2)c2c(N)c(C(N)=O)sc2n1,> 20000 nM
10,CCCOc1ccnc2sc(C(N)=O)c(N)c12,2200 nM
11,CCCc1cc(C)nc2sc(C(N)=O)c(N)c12,1300 nM
12,COc1ccnc2sc(C(N)=O)c(N)c12,4700 nM
13,Cc1ccc2c(N)c(C(N)=O)sc2n1,12700 nM
14,Cc1cc(-c2ccccc2)c2c(N)c(C(N)=O)sc2n1,7400 nM
15,Cc1ccc(-c2cc(C)nc3sc(C(N)=O)c(N)c23)cc1,8500 nM
16,COCCOc1ccnc2sc(C(N)=O)c(N)c12,10800 nM

# Second part, the compound after the results:
row,IC50,Compound
1,630 nM,CCCc1cc(N2CCCCC(N)C2)nc2sc(C(N)=O)c(N)c12 (stereo unspecified)
2,240 nM,"CCCc1cc(N2CCC(O)C(C)(C)C2)nc2sc(C(N)=O)c(N)c12 (single isomer, unassigned; enantiomer 2)"
3,2400 nM,Cc1cc(N2CCCC(O)C2)nc2sc(C(N)=O)c(N)c12 (stereo unspecified)
4,1300 nM,CCCc1cc(N2CCC(C(N)=O)CC2)nc2sc(C(N)=O)c(N)c12
5,120 nM,CCCc1cc(N2CCC(NC)CC2)nc2sc(C(N)=O)c(N)c12
6,7800 nM,CCCc1cc(N2CCC(C(=O)OC)CC2)nc2sc(C(N)=O)c(N)c12
7,520 nM,CCCc1cc(N2CCN(C)CC2)nc2sc(C(N)=O)c(N)c12
8,680 nM,CCCc1cc(N2CCC(N(C)C)CC2)nc2sc(C(N)=O)c(N)c12
9,590 nM,CCCc1cc(N2CC[C@H](N)C2)nc2sc(C(N)=O)c(N)c12
10,1950 nM,CCCc1cc(N2CC[C@@H](O)C2)nc2sc(C(N)=O)c(N)c12
11,1450 nM,CCCc1cc(N2CC[C@H](O)C2)nc2sc(C(N)=O)c(N)c12
12,42 nM,"CCCc1cc(N2CCC(O)C(C)(C)C2)nc2sc(C(N)=O)c(N)c12 (single isomer, unassigned; enantiomer 1)"
13,680 nM,CCCc1cc(N2CCC(OC)CC2)nc2sc(C(N)=O)c(N)c12
14,500 nM,CCCc1cc(N2CC[C@@H](N)C2)nc2sc(C(N)=O)c(N)c12
